Data as given in paper PMC10255713, “Palm Fruit (Phoenix dactylifera L.) Pollen Extract Inhibits Cancer Cell and Enzyme Activities and DNA and Protein Damage” (Nutrients, 2023).

How the values were obtained:
[1] = molecular target: T1, porcine α-amylase (Sus scrofa, UniProt P00690); assay: Porcine α-amylase inhibition assay; type: biochemical
T1 sequence (P00690 16-511): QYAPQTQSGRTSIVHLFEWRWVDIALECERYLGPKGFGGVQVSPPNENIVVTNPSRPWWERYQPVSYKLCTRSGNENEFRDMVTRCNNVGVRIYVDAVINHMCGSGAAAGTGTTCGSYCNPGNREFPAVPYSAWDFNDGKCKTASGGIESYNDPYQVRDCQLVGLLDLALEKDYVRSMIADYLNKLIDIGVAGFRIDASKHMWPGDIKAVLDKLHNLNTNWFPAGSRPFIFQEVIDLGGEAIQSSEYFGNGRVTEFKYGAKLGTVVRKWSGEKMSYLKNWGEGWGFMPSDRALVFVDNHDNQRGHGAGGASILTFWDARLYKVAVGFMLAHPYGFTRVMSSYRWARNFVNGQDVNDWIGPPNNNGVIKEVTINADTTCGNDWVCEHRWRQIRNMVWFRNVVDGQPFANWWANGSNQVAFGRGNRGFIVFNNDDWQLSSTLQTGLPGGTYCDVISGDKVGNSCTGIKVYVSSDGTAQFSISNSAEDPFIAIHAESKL
Method: In this study, the inhibition activity of porcine α-amylase was evaluated following a previously reported method. […] The combination was incubated at 25 °C for a specific period, following which starch solution mixed with sodium phosphate (0.02 M pH 6.9) and sodium chloride (6 mM) was added and incubated at 25 °C for 10 min. After the incubation, 1 mL of dinitrosalicylic acid (color reagent) was included in the mixture at 100 °C for 10 min to stop the reaction, followed by chilling to 25 °C. The absorbance of the resulting combination was measured at 540 nm, after adding 1 mL of deionized water. The percentage of inhibition activity of porcine α-amylase was calculated using Equation (1).

[2] = tested on: mushroom tyrosinase; assay: Tyrosinase inhibition assay; type: biochemical; conditions: for tyrosinase inhibition: highest concentration (5 mg/mL); for Tyrosinase inhibition activity IC50: mean ± SD, n = 3
Method: To assess the inhibition of tyrosinase activity, a previously reported method was followed in this study. […] The mixture was incubated at 37 °C for 10 min, and then 1 mL of 50 units/mL mushroom tyrosinase liquefied in 0.2 M, pH 6.8 phosphate buffer was added. The resulting mixture was incubated for an additional 10 min, and the absorbance was measured at 475 nm. Ethanol (50%) was used as a blank, while 1 mL of deionized water was a control. The percentage of tyrosinase inhibition activity was calculated using Equation (1).

[3] = tested on: plasmid pBR322 DNA; assay: Free radical-induced (H2O2 + UV) DNA damage assay; type: biochemical
Method: Once the reaction was completed, the tested samples were electrophoresed through a polysaccharide agarose 0.8% gel, and we stained the electrophoresed gel with ethidium bromide. The electrophoresed gel was analyzed, and we captured photographs of the electrophoresed gel using Image Lab 4.1 software, version 6.1.0. (Bio-Rad, Hercules, CA, USA).

[4] = ABTS free radical-scavenging assay; conditions: for ABTS maximum antioxidant activity: at 5 mg/mL
Method: The ABTS^• radicals are employed as a model system to assess the antioxidant activity of the compounds [33]. The percentage inhibition of the ABTS^• radicals by the test compounds was calculated using Equation 1, as described earlier.

[5] = molecular target: acetylcholinesterase (Homo sapiens, UniProt P22303); assay: Acetylcholinesterase inhibition assay; type: biochemical
Method: The mixture was then incubated at room temperature for 15 min. After this, 475 µL of 3 mM DTNB solution and 75 µL of […] 15 mM were added to the mixture and incubated for an additional 30 min at room temperature. Finally, the absorbance of the mixture was measured at 405 nm, and the percentage of inhibition activity of acetylcholinesterase was calculated by Equation (1), as explained earlier.

[6] = Ferric-reducing/antioxidant power (FRAP) assay; conditions: for maximum FRAP value: at 5 mg/mL; for FRAP antioxidant inhibition activity IC50: wet basis, mean ± SD, n = 3
Method: The FRAP reagent was prepared by mixing TPTZ (10 mM mixture) in 40 mM HCl, FeCl3 (20 mM), and acetate buffer (pH 3.6, 0.3 M) in a ratio of 1:1:10 (v/v/v). Next, 1 mL of the test sample was mixed with 2 mL of freshly prepared FRAP reagent, and the solutions were incubated for 30 min at 37 °C. The absorbance of the resulting mixture was measured at 593 nm. Deionized water was employed as a blank, and FeSO4 was used to establish the calibration curve. The FRAP values were expressed as µmol of Fe (II).

[7] = tested on: bovine serum albumin (BSA); assay: Protein oxidation produced by AAPH (SDS-PAGE); conditions: AAPH 20 mM, 30 min
Method: The mixture was then incubated in a shaking water bath for 30 min at 37 °C. A control sample not including AAPH was also prepared. After incubation, the mixture was loaded onto an SDS-PAGE 10% gel under reduction conditions for 5 min at 100 °C. Images of the stained gel were captured using a Chemi-Doc MV gel documentation system (Bio-Rad, Hercules, CA, USA). The intensity of the bands was determined to quantify the aggregate of protein damage for all bands employing Image Lab 4.1 Software version 6.1.0 (Bio-Rad, Hercules, CA, USA). […] The use of SDS-PAGE and staining methods provides a visual representation of the extent of protein damage and allows for quantification of the results.

[8] = Total antioxidant capacity (TAC) phosphomolybdate assay; conditions: for maximum total antioxidant capacity value (absorbance at 695 nm): at 5 mg/mL; for Total Antioxidant Capacity IC50: wet basis, mean ± SD, n = 3
Method: Briefly, a reagent containing sodium phosphate (28 mM), sulfuric acid (0.6 M), and ammonium molybdate (4 mM) was added to 0.1 mL of the test samples, and the mixture was incubated at 95 °C for 90 min. After cooling, the absorbance of the mixture was measured at 695 nm. A higher absorbance value indicates a greater antioxidant capacity of the tested samples.

[9] = DPPH free radical-scavenging assay; conditions: wet basis; mean ± SD, n = 3
Method: The percentage inhibition of these radical compounds was determined using Equation (1):% Inhibition DPPH^• = (Abs. control − Abs. sample)/(Abs. control) × 100(1)
The absorbance of the DPPH^• mixture without the test sample was considered as the Abs. control test. Absorbance was measured with a Varian CARY 50 Scan UV–VIS Spectrophotometer equipped with a Cary 50 Microplate Reader (Varian, Inc., Walnut Creek, CA, USA).

[10] = Nitric oxide radical (NO) scavenging, Griess reaction; conditions: for NO-scavenging maximum inhibition: at 5 mg/mL; for Nitric Oxide scavenging IC50: wet basis, mean ± SD, n = 3
Method: The reaction mixture contained 2 mL of sodium nitroprusside (10 mM), 0.5 mL of saline phosphate buffer, and 0.5 mL of the test samples. The mixtures were incubated for 150 min at 25 °C. After incubation, 0.5 mL of the reaction mixture was combined with 1 mL of sulfanilic acid reagent (0.33% in 20% glacial acetic acid). Following a 5 min wait, 1 mL of naphthyl ethylene diamine dihydrochloride (0.1%) was added. The mixtures were left for 30 min at room temperature, and the absorbance was measured at 540 nm. The percentage of nitrites was calculated using Equation 1, as described earlier.

[11] = tested on: Staphylococcus aureus (ATCC 25923); assay: Agar-well diffusion susceptibility test; type: cell-based; conditions: S. aureus
Method: (§1) The pre-cultures of these pathogens were prepared through separate cultivation on Muller–Hinton broth at 37 °C for 24 h. […] After cultivation at 37 °C for 24 h, the developed inhibition zones (Halo zones) around wells indicated positive results. Amoxicillin (AX-25) and ampicillin (AM-10) were included as reference antibacterial drugs, while clotrimazole (CLT) and amphotericin-B (AmB) were applied as reference antifungal drugs.

[12] = tested on: Pseudomonas aeruginosa (ATCC 27853); assay: Agar-well diffusion susceptibility test; type: cell-based; conditions: P. aeruginosa
Method: as §1

[13] = tested on: Escherichia coli (ATCC 25922); assay: Agar-well diffusion susceptibility test; type: cell-based; conditions: E. coli
Method: as §1

[14] = tested on: Salmonella typhimurium (ATCC 14028); assay: Agar-well diffusion susceptibility test; type: cell-based; conditions: S. typhimurium
Method: as §1

[15] = tested on: Streptococcus mutans (ATCC 25175); assay: Agar-well diffusion susceptibility test; type: cell-based; conditions: S. mutans
Method: as §1

[16] = tested on: Candida albicans (ATCC 10231); assay: Agar-well diffusion susceptibility test; type: cell-based; conditions: C. albicans; Control 2 for yeast, 10 mg/disc
Method: as §1

[17] = highest concentration tested (5 mg/mL)

Sequence of acetylcholinesterase (P22303 32-614, species assumed): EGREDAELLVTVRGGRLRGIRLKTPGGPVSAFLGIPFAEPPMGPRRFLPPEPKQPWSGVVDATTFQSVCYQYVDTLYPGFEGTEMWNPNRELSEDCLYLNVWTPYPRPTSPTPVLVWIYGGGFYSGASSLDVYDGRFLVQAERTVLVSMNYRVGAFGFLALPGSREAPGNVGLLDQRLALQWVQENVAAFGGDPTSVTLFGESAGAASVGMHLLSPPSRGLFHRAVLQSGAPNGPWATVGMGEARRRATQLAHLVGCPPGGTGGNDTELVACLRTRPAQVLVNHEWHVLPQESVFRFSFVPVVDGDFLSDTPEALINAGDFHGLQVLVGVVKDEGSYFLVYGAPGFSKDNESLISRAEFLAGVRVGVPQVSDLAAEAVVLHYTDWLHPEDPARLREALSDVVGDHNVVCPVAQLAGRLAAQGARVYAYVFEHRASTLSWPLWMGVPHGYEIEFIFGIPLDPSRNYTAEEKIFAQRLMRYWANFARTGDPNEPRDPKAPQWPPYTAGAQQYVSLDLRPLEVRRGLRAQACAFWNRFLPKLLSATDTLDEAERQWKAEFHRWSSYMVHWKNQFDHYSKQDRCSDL

C[C@H]1O[C@H](O[C@H]2[C@H](O)[C@@H](O)[C@@H](O[C@H]3[C@H](O)[C@@H](O)C(O)O[C@@H]3CO)O[C@@H]2CO)[C@H](O)[C@@H](O)[C@@H]1N[C@H]1C=C(CO)[C@@H](O)[C@H](O)[C@H]1O (some centres unmarked) [Acarbose, acarbose]
inhibition at 5000 µg/mL [1, 17]: 99.12 ± 0.1%

O=c1cc(CO)occ1O [Kojic Acid, kojic acid]
tyrosinase inhibition [2]: 99.88 ± 0.11%

C[C@@H]1O[C@@H](OC[C@H]2O[C@@H](Oc3c(-c4ccc(O)c(O)c4)oc4cc(O)cc(O)c4c3=O)[C@H](O)[C@@H](O)[C@@H]2O)[C@H](O)[C@H](O)[C@H]1O [Rutin, rutin]
DNA damage inhibition activity IC50 [3]: 15.00 ± 0.22 µg/mL | tyrosinase inhibition [2]: 55.00 ± 0.23% | Tyrosinase inhibition activity IC50 [2]: 494.40 ± 27.86 µg/mL | IC50 [1]: 142 µM | inhibition at 5000 µg/mL [1, 17]: 91.51 ± 0.51% | ABTS maximum antioxidant activity [4]: 92.69 ± 0.32% | ABTS antioxidant inhibition activity IC50 ([4]; wet basis, mean ± SD, n = 3): 6.50 ± 0.08 µg/mL | IC50 [5]: 1490 µM | inhibition at 5000 µg/mL ([5]; highest concentration tested (5 mg/mL), read-out: AChE activity inhibition): 15.92 ± 0.13% | maximum FRAP value [6]: 10,644.00 ± 86.02 µmol of Fe (II) | FRAP antioxidant inhibition activity IC50 [6]: 391.00 ± 7.46 µg/mL | BSA damage inhibition activity IC50 [7]: 3.68 ± 0.35 µg/mL | maximum total antioxidant capacity value (absorbance at 695 nm) [8]: 1.57 ± 0.01 | Total Antioxidant Capacity IC50 [8]: 17,600 ± 41.64 µg/mL | DPPH antioxidant inhibition activity IC50 [9]: 417.80 ± 5.78 µg/mL | NO-scavenging maximum inhibition [10]: 79.01 ± 0.07% | Nitric Oxide scavenging IC50 [10]: 270.10 ± 3.51 µg/mL

O=C1O[C@H]([C@@H](O)CO)C(O)=C1O [VC, vitamin C]
DNA damage inhibition activity IC50 [3]: 505.00 ± 21.63 µg/mL | tyrosinase inhibition [2]: 98.72 ± 0.15% | Tyrosinase inhibition activity IC50 [2]: 1881.00 ± 48.56 µg/mL | α-amylase activity inhibition [1, 17]: 93.18 ± 0.18% | Porcine α-amylase inhibition activity IC50 ([1]; mean ± SD, n = 3): 97.62 ± 8.14 µg/mL | ABTS maximum antioxidant activity [4]: 90.13 ± 0.04% | maximum FRAP value [6]: 10,233.67 ± 243.72 µmol of Fe (II) | FRAP antioxidant inhibition activity IC50 [6]: 743.60 ± 30.11 µg/mL | BSA damage inhibition activity IC50 [7]: 25.32 ± 1.29 µg/mL | maximum total antioxidant capacity value (absorbance at 695 nm) [8]: 0.041 ± 0.000 | Total Antioxidant Capacity IC50 [8]: 3005.00 ± 72.45 µg/mL | DPPH antioxidant inhibition activity IC50 [9]: 881.70 ± 13.38 µg/mL | NO-scavenging maximum inhibition [10]: 56.55 ± 1.52% | Nitric Oxide scavenging IC50 [10]: 2710.00 ± 13.35 µg/mL

CC1(C)S[C@@H]2[C@H](NC(=O)[C@H](N)c3ccc(O)cc3)C(=O)N2[C@H]1C(=O)O [amoxicillin]
inhibition-zone diameter ([11]; Control 1, 25 mg/disc): −ve | inhibition-zone diameter ([12]; Control 1, 25 mg/disc): 28.00 ± 2.76 mm | inhibition-zone diameter ([13]; Control 1, 25 mg/disc): 25.00 ± 2.40 mm | inhibition-zone diameter ([14]; Control 1, 25 mg/disc): 30.00 ± 1.30 mm | inhibition-zone diameter ([15]; Control 1, 25 mg/disc): 37.00 ± 2.80 mm

C[C@@H]1[C@H](O)[C@@H](C)/C=C/C=C/C=C/C=C/C=C/C=C/C=C/[C@H](O[C@@H]2O[C@H](C)[C@@H](O)[C@H](N)[C@@H]2O)C[C@@H]2O[C@](O)(C[C@@H](O)C[C@@H](O)[C@H](O)CC[C@@H](O)C[C@@H](O)CC(=O)O[C@H]1C)C[C@H](O)[C@H]2C(=O)O [amphotericin-B]
inhibition-zone diameter [16]: 25.50 ± 2.30 mm

CC1(C)S[C@@H]2[C@H](NC(=O)[C@H](N)c3ccccc3)C(=O)N2[C@H]1C(=O)O [ampicillin]
inhibition-zone diameter ([11]; Control 2, 10 mg/disc): −ve | inhibition-zone diameter ([12]; Control 2, 10 mg/disc): 13.20 ± 0.68 mm | inhibition-zone diameter ([13]; Control 2, 10 mg/disc): −ve | inhibition-zone diameter ([14]; Control 2, 10 mg/disc): 10.00 ± 0.80 mm | inhibition-zone diameter ([15]; Control 2, 10 mg/disc): 18.00 ± 1.48 mm
